{
  "source": "ChEMBL document CHEMBL5154879",
  "about": "“Induction of Genes Implicated in Stress Response and Autophagy by a Novel Quinolin-8-yl-nicotinamide QN523 in Pancreatic Cancer” (J Med Chem, 2022)",
  "key": {"MIA PaCa-2 [1]": {"test_system": "MIA PaCa-2", "assay": "Induction of autophagy in human MIA PaCa-2 cells assessed as accumulation of GABARAPL1 marker gene expression at […] incubated for 72 hrs by Western blot analysis", "format": "functional, cell-based"}, "MIA PaCa-2 [2]": {"test_system": "MIA PaCa-2", "assay": "Induction of autophagy in human MIA PaCa-2 cells assessed as accumulation of LC3B marker gene expression at […] incubated for 72 hrs by Western blot analysis", "format": "functional, cell-based"}, "MIA PaCa-2 [3]": {"test_system": "MIA PaCa-2", "assay": "Cytotoxicity against human MIA PaCa-2 cells assessed as inhibition of cell growth incubated for 72 hrs by MTT assay", "format": "functional, cell-based", "conditions": "MIA PaCa-2, 72 h"}, "MIA PaCa-2 [4]": {"test_system": "MIA PaCa-2", "assay": "Induction of autophagy in human MIA PaCa-2 cells assessed as accumulation of WIP11 marker gene expression at […] incubated for 72 hrs by Western blot analysis", "format": "functional, cell-based"}, "MIA PaCa-2 [5]": {"test_system": "MIA PaCa-2", "assay": "Induction of apoptosis in human MIA PaCa-2 cells assessed as early apoptotic cells at 0.1 uM incubated for 24 hrs by Annexin V-FITC/PI staining based flow cytometry analysis (reference value: 5.1%)", "format": "functional"}, "MIA PaCa-2 [6]": {"test_system": "MIA PaCa-2", "assay": "Induction of apoptosis in human MIA PaCa-2 cells assessed as necrotic cells at 0.1 uM incubated for 48 hrs by Annexin V-FITC/PI staining based flow cytometry analysis (reference value: 1.07%)", "format": "functional"}, "MIA PaCa-2 [7]": {"test_system": "MIA PaCa-2", "assay": "Induction of apoptosis in human MIA PaCa-2 cells assessed as live cells at 0.1 uM incubated for 48 hrs by Annexin V-FITC/PI staining based flow cytometry analysis (reference value: 96.3%)", "format": "functional"}, "MIA PaCa-2 [8]": {"test_system": "MIA PaCa-2", "assay": "Induction of apoptosis in human MIA PaCa-2 cells assessed as necrotic cells at 0.5 uM incubated for 24 hrs by Annexin V-FITC/PI staining based flow cytometry analysis (reference value: 2.7%)", "format": "functional"}, "MIA PaCa-2 [9]": {"test_system": "MIA PaCa-2", "assay": "Induction of apoptosis in human MIA PaCa-2 cells assessed as necrotic cells at 0.1 uM incubated for 24 hrs by Annexin V-FITC/PI staining based flow cytometry analysis (reference value: 2.7%)", "format": "functional"}, "[10]": {"assay": "Cytotoxicity against human HPDE cells assessed as inhibition of cell growth incubated for 72 hrs by MTT assay", "format": "toxicity, cell-based"}, "MIA PaCa-2 [11]": {"test_system": "MIA PaCa-2", "assay": "Induction of apoptosis in human MIA PaCa-2 cells assessed as necrotic cells at 0.5 uM incubated for 48 hrs by Annexin V-FITC/PI staining based flow cytometry analysis (reference value: 1.07%)", "format": "functional"}, "MIA PaCa-2 [12]": {"test_system": "MIA PaCa-2", "assay": "Induction of apoptosis in human MIA PaCa-2 cells assessed as late apoptotic cells at 0.1 uM incubated for 24 hrs by Annexin V-FITC/PI staining based flow cytometry analysis (reference value: 2.04%)", "format": "functional"}, "PANC-1": {"test_system": "PANC-1", "assay": "Cytotoxicity against human PANC-1 cells assessed as inhibition of cell growth incubated for 72 hrs by MTT assay", "format": "functional, cell-based", "conditions": "PANC-1, 72 h"}, "MIA PaCa-2 [13]": {"test_system": "MIA PaCa-2", "assay": "Induction of apoptosis in human MIA PaCa-2 cells assessed as viable cells at 0.5 uM incubated for 48 hrs by Annexin V-FITC/PI staining based flow cytometry analysis (reference value: 96.3%)", "format": "functional", "conditions": "read-out: Activity"}, "[14]": {"assay": "Cytotoxicity against HEK293 cells assessed as inhibition of cell growth incubated for 72 hrs by MTT assay", "format": "toxicity, cell-based", "conditions": "human"}, "MIA PaCa-2 [15]": {"test_system": "MIA PaCa-2", "assay": "Induction of apoptosis in human MIA PaCa-2 cells assessed as late apoptotic cells at 0.5 uM incubated for 24 hrs by Annexin V-FITC/PI staining based flow cytometry analysis (reference value: 2.04%)", "format": "functional"}, "MIA PaCa-2 [16]": {"test_system": "MIA PaCa-2", "assay": "Induction of apoptosis in human MIA PaCa-2 cells assessed as early apoptotic cells at 0.5 uM incubated for 24 hrs by Annexin V-FITC/PI staining based flow cytometry analysis (reference value: 5.1%)", "format": "functional"}, "MIA PaCa-2 [17]": {"test_system": "MIA PaCa-2", "assay": "Induction of cell cycle arrest in human MIA PaCa-2 cells assessed as accumulation of cells at S phase at 0.1 uM incubated for 24 hrs by RNase/propidium iodide staining based flow cytometry analysis (Rvb =27.6 %)", "format": "functional"}, "MIA PaCa-2 [18]": {"test_system": "MIA PaCa-2", "assay": "Induction of cell cycle arrest in human MIA PaCa-2 cells assessed as accumulation of cells in G0/G1 phase at 0.1 uM incubated for 48 hrs by RNase/propidium iodide staining based flow cytometry analysis (reference value: 70.4%)", "format": "functional"}, "MIA PaCa-2 [19]": {"test_system": "MIA PaCa-2", "assay": "Induction of apoptosis in human MIA PaCa-2 cells assessed as viable cells at 0.1 uM incubated for 24 hrs by Annexin V-FITC/PI staining based flow cytometry analysis (reference value: 90.2%)", "format": "functional", "conditions": "read-out: Activity"}, "MIA PaCa-2 [20]": {"test_system": "MIA PaCa-2", "assay": "Induction of cell cycle arrest in human MIA PaCa-2 cells assessed as accumulation of cells in G2/M phase at 0.1 uM incubated for 24 hrs by RNase/propidium iodide staining based flow cytometry analysis (reference value: 8.11%)", "format": "functional"}, "MIA PaCa-2 [21]": {"test_system": "MIA PaCa-2", "assay": "Induction of apoptosis in human MIA PaCa-2 cells assessed as live cells at 0.5 uM incubated for 24 hrs by Annexin V-FITC/PI staining based flow cytometry analysis (reference value: 90.2%)", "format": "functional"}, "MIA PaCa-2 [22]": {"test_system": "MIA PaCa-2", "assay": "Induction of cell cycle arrest in human MIA PaCa-2 cells assessed as accumulation of cells in G0/G1 phase at 0.1 uM incubated for 24 hrs by RNase/propidium iodide staining based flow cytometry analysis (reference value: 64.3%)", "format": "functional"}, "MIA PaCa-2 [23]": {"test_system": "MIA PaCa-2", "assay": "Induction of apoptosis in human MIA PaCa-2 cells assessed as early apoptotic cells at 0.1 uM incubated for 48 hrs by Annexin V-FITC/PI staining based flow cytometry analysis (reference value: 1.8%)", "format": "functional"}, "MIA PaCa-2 [24]": {"test_system": "MIA PaCa-2", "assay": "Induction of apoptosis in human MIA PaCa-2 cells assessed as late apoptotic cells at 0.5 uM incubated for 48 hrs by Annexin V-FITC/PI staining based flow cytometry analysis (reference value: 0.8%)", "format": "functional"}, "MIA PaCa-2 [25]": {"test_system": "MIA PaCa-2", "assay": "Induction of cell cycle arrest in human MIA PaCa-2 cells assessed as accumulation of cells in G2/M phase at 0.1 uM incubated for 48 hrs by RNase/propidium iodide staining based flow cytometry analysis (reference value: 2.71%)", "format": "functional"}, "MIA PaCa-2 [26]": {"test_system": "MIA PaCa-2", "assay": "Induction of apoptosis in human MIA PaCa-2 cells assessed as early apoptotic cells at 0.5 uM incubated for 48 hrs by Annexin V-FITC/PI staining based flow cytometry analysis (reference value: 1.8%)", "format": "functional"}, "MIA PaCa-2 [27]": {"test_system": "MIA PaCa-2", "assay": "Induction of apoptosis in human MIA PaCa-2 cells assessed as late apoptotic cells at 0.1 uM incubated for 48 hrs by Annexin V-FITC/PI staining based flow cytometry analysis (reference value: 0.8%)", "format": "functional"}, "MIA PaCa-2 [28]": {"test_system": "MIA PaCa-2", "assay": "Induction of cell cycle arrest in human MIA PaCa-2 cells assessed as accumulation of cells at S phase at 0.1 uM incubated for 48 hrs by RNase/propidium iodide staining based flow cytometry analysis (Rvb =26.9 %)", "format": "functional"}, "[29]": {"assay": "Cytotoxicity against human HFF-1 cells assessed as inhibition of cell growth incubated for 72 hrs by MTT assay", "format": "toxicity, cell-based"}},
  "note": "pIC50: −log10 of the molar value. The source made the active and inactive calls. The calls are words filed in the database; no cut-off is given here.",
  "data": [
    {"smiles": "CC1=C(CC(=O)O)c2cc(F)ccc2/C1=C\\c1ccc([S+](C)[O-])cc1", "note": "(stereo not given)", "values": [
      {"measurement": "Activity", "setting": "MIA PaCa-2 [1]", "value": "Active"},
      {"measurement": "Activity", "setting": "MIA PaCa-2 [2]", "value": "Active"},
      {"measurement": "pIC50", "setting": "MIA PaCa-2 [3]", "value": 3.52},
      {"measurement": "Activity", "setting": "MIA PaCa-2 [4]", "value": "Active"}
    ]},
    {"smiles": "Nc1ccn([C@@H]2O[C@H](CO)[C@@H](O)C2(F)F)c(=O)n1", "note": "[GEMCITABINE]", "values": [
      {"measurement": "Activity", "setting": "MIA PaCa-2 [5]", "value": 16.1, "unit": "%"},
      {"measurement": "Activity", "setting": "MIA PaCa-2 [6]", "value": 2.1, "unit": "%"},
      {"measurement": "Activity", "setting": "MIA PaCa-2 [7]", "value": 93.7, "unit": "%"},
      {"measurement": "Activity", "setting": "MIA PaCa-2 [8]", "value": 2.4, "unit": "%"},
      {"measurement": "Activity", "setting": "MIA PaCa-2 [9]", "value": 0.8, "unit": "%"},
      {"measurement": "IC50 at 72 h", "setting": "[10]", "value": 1, "unit": "nM"},
      {"measurement": "Activity", "setting": "MIA PaCa-2 [11]", "value": 2.6, "unit": "%"},
      {"measurement": "Activity", "setting": "MIA PaCa-2 [12]", "value": 4, "unit": "%"},
      {"measurement": "pIC50", "setting": "PANC-1", "value": 6.70},
      {"measurement": "viability at 0.5 µM", "setting": "MIA PaCa-2 [13]", "value": 90, "unit": "%"},
      {"measurement": "IC50 at 72 h", "setting": "[14]", "value": 50, "unit": "nM"},
      {"measurement": "Activity", "setting": "MIA PaCa-2 [15]", "value": 2.8, "unit": "%"},
      {"measurement": "Activity", "setting": "MIA PaCa-2 [16]", "value": 7.6, "unit": "%"},
      {"measurement": "Activity", "setting": "MIA PaCa-2 [17]", "value": 78.03, "unit": "%"},
      {"measurement": "Activity", "setting": "MIA PaCa-2 [18]", "value": 10.8, "unit": "%"},
      {"measurement": "viability at 0.1 µM", "setting": "MIA PaCa-2 [19]", "value": 79.1, "unit": "%"},
      {"measurement": "Activity", "setting": "MIA PaCa-2 [20]", "value": 0.93, "unit": "%"},
      {"measurement": "Activity", "setting": "MIA PaCa-2 [21]", "value": 87.2, "unit": "%"},
      {"measurement": "Activity", "setting": "MIA PaCa-2 [22]", "value": 21.04, "unit": "%"},
      {"measurement": "Activity", "setting": "MIA PaCa-2 [23]", "value": 2.2, "unit": "%"},
      {"measurement": "Activity", "setting": "MIA PaCa-2 [24]", "value": 2.3, "unit": "%"},
      {"measurement": "Activity", "setting": "MIA PaCa-2 [25]", "value": 0, "unit": "%"},
      {"measurement": "Activity", "setting": "MIA PaCa-2 [26]", "value": 5.2, "unit": "%"},
      {"measurement": "Activity", "setting": "MIA PaCa-2 [27]", "value": 2.01, "unit": "%"},
      {"measurement": "Activity", "setting": "MIA PaCa-2 [28]", "value": 89.3, "unit": "%"},
      {"measurement": "IC50 at 72 h", "setting": "[29]", "value": 14400, "unit": "nM"}
    ]}
  ]
}
